Read-outs that look alike come from different tables or passages of the source. Numbered stars: 1 amine (or outer) side, 2 acyl side, 3 side chain; on linkers, the order of the positions; unused ones are H or OH. Square brackets hold non-standard residues; d marks the D form. Peptide text beside a SMILES is read from it. X1 = N=C(N)NCCC[C@H](N[*:1])C(=O)c1nc2ccc(C(=O)[*:2])cc2s1; Phe(4-NO2) = N[C@@H](Cc1ccc([N+](=O)[O-])cc1)C(=O)O
Columns and labels:
Format in all cases: biochemical
hepsin = biological target: T1, hepsin (Homo sapiens, UniProt P05981); experiment: Fluorogenic kinetic enzyme inhibitor assay, hepsin; settings: read-out: Hepsin IC50
T1 construct: purchased R&D Systems 4776-SE-010
T1 sequence (P05981 163-417 limits assumed): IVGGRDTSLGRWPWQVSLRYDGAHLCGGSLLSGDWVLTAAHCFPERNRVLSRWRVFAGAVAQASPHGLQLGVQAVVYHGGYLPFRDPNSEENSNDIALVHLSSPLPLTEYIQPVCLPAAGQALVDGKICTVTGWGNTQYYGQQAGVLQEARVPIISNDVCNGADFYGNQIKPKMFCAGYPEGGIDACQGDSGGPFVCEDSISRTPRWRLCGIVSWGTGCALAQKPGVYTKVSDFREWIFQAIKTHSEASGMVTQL
T1 sequence (P05981 1-162 partner limits assumed): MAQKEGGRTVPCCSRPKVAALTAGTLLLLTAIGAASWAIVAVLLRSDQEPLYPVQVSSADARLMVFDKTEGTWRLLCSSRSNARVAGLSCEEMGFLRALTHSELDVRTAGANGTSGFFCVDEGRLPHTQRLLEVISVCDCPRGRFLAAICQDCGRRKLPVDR

TMPRSS2 = TMPRSS2 (Homo sapiens, UniProt O15393); experiment: Fluorogenic kinetic enzyme inhibitor assay, TMPRSS2; design: purchased Cusabio Technology CSB-YP023924HU; settings: read-out: TMPRSS2 IC50
Sequence of TMPRSS2 (O15393 106-492 limits assumed): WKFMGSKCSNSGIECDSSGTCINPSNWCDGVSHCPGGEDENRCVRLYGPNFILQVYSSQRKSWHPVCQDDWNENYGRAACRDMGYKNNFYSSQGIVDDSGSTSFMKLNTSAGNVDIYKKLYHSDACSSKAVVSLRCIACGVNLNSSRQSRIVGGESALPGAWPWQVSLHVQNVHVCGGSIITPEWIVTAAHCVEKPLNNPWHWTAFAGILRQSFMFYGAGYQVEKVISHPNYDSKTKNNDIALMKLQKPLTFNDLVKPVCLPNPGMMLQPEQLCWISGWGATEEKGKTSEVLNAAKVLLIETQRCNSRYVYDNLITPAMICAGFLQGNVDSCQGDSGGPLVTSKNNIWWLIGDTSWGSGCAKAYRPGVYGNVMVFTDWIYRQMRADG

HGFA = biological target: T2, HGFA (Homo sapiens, UniProt Q04756); experiment: Fluorogenic kinetic enzyme inhibitor assay, HGFA; settings: read-out: HGFA IC50
T2 construct: purchased R&D Systems 1514-SE-010
T2 sequence (Q04756 408-655 limits assumed): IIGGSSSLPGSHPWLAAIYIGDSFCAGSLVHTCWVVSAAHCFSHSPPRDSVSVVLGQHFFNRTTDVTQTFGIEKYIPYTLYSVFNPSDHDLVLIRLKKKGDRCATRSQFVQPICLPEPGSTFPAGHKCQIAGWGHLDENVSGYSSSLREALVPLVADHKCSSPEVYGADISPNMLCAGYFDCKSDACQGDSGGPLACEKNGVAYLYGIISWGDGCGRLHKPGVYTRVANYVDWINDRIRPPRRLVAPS
T2 sequence (Q04756 373-407 partner limits assumed): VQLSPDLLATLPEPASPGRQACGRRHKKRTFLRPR

matriptase = biological target: T3, matriptase (Homo sapiens, UniProt Q9Y5Y6); experiment: Fluorogenic kinetic enzyme inhibitor assay, matriptase
T3 construct: purchased R&D Systems 3946-SEB-010
T3 sequence (Q9Y5Y6 615-855 limits assumed): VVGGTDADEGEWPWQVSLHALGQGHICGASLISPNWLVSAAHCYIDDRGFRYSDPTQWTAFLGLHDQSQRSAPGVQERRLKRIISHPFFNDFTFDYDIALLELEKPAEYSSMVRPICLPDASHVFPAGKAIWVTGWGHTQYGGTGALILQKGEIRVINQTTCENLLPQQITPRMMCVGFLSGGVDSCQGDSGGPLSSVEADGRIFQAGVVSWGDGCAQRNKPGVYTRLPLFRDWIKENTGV

Factor Xa = biological target: T4, Factor Xa (Homo sapiens, UniProt P00742); experiment: Fluorogenic assay, Factor Xa; settings: read-out: Factor Xa IC50
T4 construct: TMPRSS2; Matriptase; Hepsin; HGFA; Thrombin; Factor Xa
T4 sequence (P00742 235-488 limits assumed): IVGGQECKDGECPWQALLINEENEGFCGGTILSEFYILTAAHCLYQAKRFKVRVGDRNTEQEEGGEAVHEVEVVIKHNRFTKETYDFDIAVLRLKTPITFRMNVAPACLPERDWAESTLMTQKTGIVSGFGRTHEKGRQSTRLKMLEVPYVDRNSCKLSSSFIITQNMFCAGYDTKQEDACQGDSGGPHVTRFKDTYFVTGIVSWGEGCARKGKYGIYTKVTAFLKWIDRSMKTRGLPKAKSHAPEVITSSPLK
T4 sequence (P00742 41-179 partner limits assumed): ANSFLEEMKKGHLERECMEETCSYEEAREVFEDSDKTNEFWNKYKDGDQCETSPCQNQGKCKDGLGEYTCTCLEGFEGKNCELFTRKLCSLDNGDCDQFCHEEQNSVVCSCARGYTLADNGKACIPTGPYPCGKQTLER

Thrombin = Thrombin (Homo sapiens, UniProt P00734); experiment: Fluorogenic assay, thrombin

Row | Compound | IC50 (hepsin) [nM] | IC50 (TMPRSS2) [nM] | IC50 (HGFA) [nM] | IC50 (matriptase; read-out: Matriptase IC50) [nM] | IC50 (Factor Xa) [nM] | IC50 (Thrombin) [nM] | IC50 (matriptase) [nM] | IC50 (TMPRSS2; 30 min incubation, Boc-QAR-AMC at Km) [nM] | IC50 (HGFA; 30 min incubation, Boc-QLR-AMC at Km) [nM]
1 | N=C(N)NCCC[C@H](NC(=O)[C@H](Cc1ccccc1)NC(=O)[C@H](CCC(N)=O)NC(=O)Cc1ccccc1)C(=O)c1nc2ccccc2s1 [CA1018, N-[(S)-1-[N-(S)-1-[(1,3-benzothiazol-2-yl)carbonyl]-4-guanidinobutylcarbamoyl]-2-phenylethyl](S)-2-(benzylcarbonylamino) glutaramide] | 0.65 | 0.407 | 75.2 | 0.99 | 212 | > 20000 |  |  | 
2 | N=C(N)NCCC[C@@H](NC(=O)[C@H](Cc1ccccc1)NC(=O)[C@H](CCC(N)=O)NCc1ccccc1)C(=O)c1nc2ccccc2s1 [CA1022-1, N-[(S)-1-[N-(R)-1-[(1,3-benzothiazol-2-yl)carbonyl]-4-guanidinobutylcarbamoyl]-2-phenylethyl](S)-2-benzylaminoglutaramide] | 0.83 | 2.35 | 1300 | 8.8 | 442 | > 20000 |  |  | 
3 | N=C(N)NCCC[C@H](NC(=O)[C@H](Cc1ccccc1)NC(=O)[C@H](CCC(N)=O)NCc1ccccc1)C(=O)c1nc2ccccc2s1 [CA1022-2, N-[(S)-1-[N-(S)-1-[(1,3-benzothiazol-2-yl)carbonyl]-4-guanidinobutylcarbamoyl]-2-phenylethyl](S)-2-benzylaminoglutaramide] | 0.2 | 0.993 | 50.4 | 2.31 | 40 | > 20000 |  |  | 
4 | CC(=O)N[C@@H](CO)C(=O)N[C@H](Cc1c[nH]c2ccccc12)C(=O)N[C@@H](CC(C)C)C(=O)N[C@@H](CCCNC(=N)N)C(=O)c1nc2ccc(C(=O)N[C@H](C(N)=O)C(C)C)cc2s1 [JH1114, N-[(S)-1-carbamoyl-2-methylpropyl]-2-[(S)-2-[(S)-2-[(R)-2-[(S)-2-acetylamino-3-hydroxypropionylamino]-3-(3-indolyl)propionylamino]-4-methylvalerylamino]-5-guanidinovaleryl]-1,3-benzothiazole-6-carboxamide] (Ac-S[dW]L[X1]V-NH2) | 1.8 |  | 57.4 |  | 1280 | 3880 | 231 |  | 
5 | CC(=O)N[C@H](Cc1c[nH]c2ccccc12)C(=O)N[C@@H](CCCCNC(=N)N)C(=O)N[C@@H](CCC(C)C)C(=O)N[C@@H](CCCNC(=N)N)C(=O)c1nc2ccccc2s1 [JH1140-2, N-[(S)-1-[(1,3-benzothiazol-2-yl)carbonyl]-4-guanidinobutyl](S)-2-[(S)-1-[(R)-2-acetylamino-3-(3-indolyl)propionylamino]-5-guanidinopentylcarbonylamino]-5-methylhexanamide] | 0.45 |  | 4.84 |  | 9.12 | > 20000 | 0.46 |  | 
6 | CC(=O)N[C@@H](CCCCNC(=N)N)C(=O)N[C@@H](CCC(C)C)C(=O)N[C@@H](CCCNC(=N)N)C(=O)c1nc2ccccc2s1 [JH1141-2, N-[(S)-1-[(1,3-benzothiazol-2-yl)carbonyl]-4-guanidinobutyl](S)-2-[(S)-1-acetylamino-5-guanidinopentylcarbonylamino]-5-methylhexanamide] | 1.15 |  | 10.5 | 1.06 | 121 | > 20000 |  |  | 
7 | CC(=O)N[C@@H](Cc1cncn1COCc1ccccc1)C(=O)N[C@@H](CCCCNC(=N)N)C(=O)N[C@@H](CCC(C)C)C(=O)N[C@@H](CCCNC(=N)N)C(=O)c1nc2ccccc2s1 [JH1143-2, N-[(S)-1-[(1,3-benzothiazol-2-yl)carbonyl]-4-guanidinobutyl](S)-2-[(S)-1-[(S)-2-acetylamino-3-{1-[(benzyloxy)methyl]-5-imidazolyl}propionylamino]-5-guanidinopentylcarbonylamino]-5-methylhexanamide] | 0.728 |  | 43.9 |  | 177 | 1630 | 0.862 |  | 
8 | CC(=O)N[C@@H](CO)C(=O)NCc1cccc(CC(=O)N[C@@H](CC(C)C)C(=O)N[C@@H](CCCNC(=N)N)C(=O)c2nc3ccccc3s2)c1 [MM1132-2, N-[(S)-1-[(1,3-benzothiazol-2-yl)carbonyl]-4-guanidinobutyl](S)-2-{[(m-{[(S)-2-acetylamino-3-hydroxypropionylamino]methyl}phenyl)methyl]carbonylamino}-4-methylvaleramide] | 0.326 |  | 209 | 31 | 1890 | 9440 |  |  | 
9 | CC(=O)N[C@@H](CO)C(=O)N[C@@H](Cc1ccc([N+](=O)[O-])cc1)C(=O)N[C@@H](CC(C)C)C(=O)N[C@@H](CCCNC(=N)N)C(=O)c1nc2ccc(C(=O)N[C@H](C(N)=O)C(C)C)cc2s1 [MM1180, N-[(S)-1-carbamoyl-2-methylpropyl]-2-[(S)-2-[(S)-2-[(S)-2-[(S)-2-acetylamino-3-hydroxypropionylamino]-3-(p-nitrophenyl)propionylamino]-4-methylvalerylamino]-5-guanidinovaleryl]-1,3-benzothiazole-6-carboxamide] (Ac-S[Phe(4-NO2)]L[X1]V-NH2) | 3.1 |  | 231 |  | 64.2 | 134 | 133 |  | 
10 | CCC(C)[C@H](NC(C)=O)C(=O)N[C@@H](CCC(N)=O)C(=O)N[C@@H](CO)C(=O)N[C@@H](CCCNC(=N)N)C(=O)c1nc2ccccc2s1 (stereo partly drawn) [MM3177, N-[(S)-2-hydroxy-1-[N-(S)-1-[(1,3-benzothiazol-2-yl)carbonyl]-4-guanidinobutylcarbamoyl]ethyl](S)-2-[(2S)-2-acetylamino-3-methylvalerylamino]glutaramide] | 2.42 | 4.55 | 19900 |  | 1730 | > 20000 |  |  | 
11 | CCC(C)[C@H](NC(C)=O)C(=O)N[C@@H](CCC(N)=O)C(=O)N[C@H](C(=O)N[C@@H](CCCNC(=N)N)C(=O)c1nc2ccccc2s1)C(C)O (stereo partly drawn) [MM3186, N-[(1S)-2-hydroxy-1-[N-(S)-1-[(1,3-benzothiazol-2-yl)carbonyl]-4-guanidinobutylcarbamoyl]propyl](S)-2-[(2S)-2-acetylamino-3-methylvalerylamino]glutaramide] |  | 0.173 | 18400 |  | > 20000 | > 20000 | 15.5 |  | 
12 | CC(=O)N[C@H](Cc1c[nH]c2ccccc12)C(=O)N[C@@H](Cc1ccccc1)C(=O)N[C@@H](CCCNC(=N)N)C(=O)c1nc2ccc(C(=O)O)cc2s1 [PK-1-93, 2-[(S)-2-[(S)-2-[(R)-2-acetylamino-3-(3-indolyl)propionylamino]-3-phenylpropionylamino]-5-guanidinovaleryl]-1,3-benzothiazole-6-carboxylic acid] | 2 |  | 95.5 | 136 | 30.5 | 19900 |  |  | 
13 | CC(=O)N[C@H]1Cc2cn(nn2)CCCC[C@H](C(=O)N[C@@H](CCCNC(=N)N)C(=O)c2nc3ccccc3s2)NC(=O)[C@H](CC(C)C)NC1=O [VD4090, N-[(S)-1-[(1,3-benzothiazol-2-yl)carbonyl]-4-guanidinobutyl]-(6R,9S,12S)-12-acetylamino-9-isobutyl-8,11-dioxo-1,7,10,15,16-pentaazabicyclo[12.2.1]heptadeca-14(17),15-diene-6-carboxamide] |  |  |  |  | 4290 | > 20000 |  | 4.19 | 3080
14 | CC(=O)N[C@H]1CCCCn2cc(nn2)C[C@H](C(=O)N[C@H](CCCNC(=N)N)C(=O)c2nc3ccccc3s2)NC(=O)[C@H](CC(C)C)NC1=O [VD4118A, N-[(R)-1-[(1,3-benzothiazol-2-yl)carbonyl]-4-guanidinobutyl]-(6S,9S,12R)-6-acetylamino-9-isobutyl-7,10-dioxo-1,8,11,15,16-pentaazabicyclo[12.2.1]heptadeca-14(17),15-diene-12-carboxamide] | 117 |  | 15600 |  | 1930 | > 20000 | 19.6 |  | 
15 | CC(=O)N[C@H]1Cc2ccc(cc2)OCCCC[C@@H](C(=O)N[C@H](CCCNC(=N)N)C(=O)c2nc3ccccc3s2)NC(=O)[C@@H](Cc2c[nH]c3ccccc23)NC1=O [VD4162A, N-[(R)-1-[(1,3-benzothiazol-2-yl)carbonyl]-4-guanidinobutyl]-(7S,10R,13S)-13-acetylamino-10-[(3-indolyl)methyl]-9,12-dioxo-2-oxa-8,11-diazabicyclo[13.2.2]nonadeca-1(17),15,18-triene-7-carboxamide] | 3.05 |  | 52 |  | 7470 | > 20000 | 30.8 |  | 

Source: patent publication US20250171495A1, “MUTLI-TARGETED SERINE PROTEASE INHIBITORS FOR TREATMENT OF CANCER AND VIRAL INFECTION” (Washington University, priority 2023, published 2025)
